Reference: ChEMBL document CHEMBL3244132, “Semisynthetic aminoglycoside antibacterials. 6. Synthesis of sisomicin, Antibiotic G-52, and novel 6'-substituted analogues of sisomicin from aminoglycoside 66-40C” (J Med Chem, 1978)
The source made the active and inactive calls.

Experiments:
Format in all cases: functional
Pseudomonas aeruginosa [1] = assay: Antimicrobial activity against Pseudomonas aeruginosa GN 315 carrying AAC(6') by tube dilution method
Bacillus subtilis = assay: Antimicrobial activity against Bacillus subtilis ATCC 6633 by tube dilution method
Klebsiella pneumoniae [2] = assay: Antimicrobial activity against Klebsiella pneumoniae Georgetown 3694 carrying APH(2'') by tube dilution method
Staphylococcus aureus [3] = assay: Antimicrobial activity against Staphylococcus aureus 209 P by tube dilution method
Streptococcus pyogenes [4] = assay: Antimicrobial activity against Streptococcus pyogenes 27 by tube dilution method
Providencia = assay: Antimicrobial activity against Providencia 164 carrying AAC(2')-I by tube dilution method
Providencia rettgeri [5] = assay: Antimicrobial activity against Providencia rettgeri Membel by tube dilution method
Pseudomonas aeruginosa [6] = assay: Antimicrobial activity against Pseudomonas aeruginosa St. M. 1395 by tube dilution method
Trichomonas vaginalis = assay: Antiprotozoal activity against Trichomonas vaginalis after 48 hrs
Escherichia coli [7] = assay: Antimicrobial activity against Escherichia coli HL97/W677 carrying AAC(6') by tube dilution method
Pseudomonas aeruginosa [8] = assay: Antimicrobial activity against Pseudomonas aeruginosa St. M. 762 by tube dilution method
Proteus mirabilis = assay: Antimicrobial activity against Proteus mirabilis Harding by tube dilution method
Salmonella typhimurium = assay: Antimicrobial activity against Salmonella typhimurium Gr. B. by tube dilution method; settings: Salmonella enterica subsp. enterica serovar Typhimurium
Escherichia coli [9] = assay: Antimicrobial activity against Escherichia coli JR88 carrying AAC(3) by tube dilution method
Pseudomonas aeruginosa [10] = assay: Antimicrobial activity against Pseudomonas aeruginosa Stone 130 carrying AAC(3) by tube dilution method
Streptococcus pyogenes [11] = assay: Antimicrobial activity against Streptococcus pyogenes Group A Cruz by tube dilution method
Staphylococcus aureus [12] = assay: Antimicrobial activity against Staphylococcus aureus Ziegler by tube dilution method
Staphylococcus aureus [13] = assay: Antimicrobial activity against Staphylococcus aureus Wood by tube dilution method
Escherichia coli [14] = assay: Antimicrobial activity against Escherichia coli LA290R55 carrying ANT(2'') by tube dilution method
Escherichia coli [15] = assay: Antimicrobial activity against Escherichia coli Baker 2 carrying APH(3')-I by tube dilution method
Histomonas meleagridis = assay: Antiprotozoal activity against Histomonas meleagridis
Escherichia coli [16] = assay: Antimicrobial activity against Escherichia coli ATCC 10536 by tube dilution method
Staphylococcus aureus [17] = assay: Antimicrobial activity against Staphylococcus aureus 59N by tube dilution method
Providencia rettgeri [18] = assay: Antimicrobial activity against Providencia rettgeri Anderson by tube dilution method
Streptococcus pyogenes [19] = assay: Antimicrobial activity against Streptococcus pyogenes C by tube dilution method
Streptococcus pyogenes [20] = assay: Antimicrobial activity against Streptococcus pyogenes Alvarez by tube dilution method
Serratia marcescens = assay: Antimicrobial activity against Serratia marcescens Dalton by tube dilution method
Entamoeba histolytica = assay: Antiprotozoal activity against Entamoeba histolytica JH
Klebsiella pneumoniae [21] = assay: Antimicrobial activity against Klebsiella pneumoniae Adler 17 carrying APH(3')-I by tube dilution method

Measured: Activity

CN[C@@H]1[C@@H](O)[C@@H](O[C@@H]2[C@@H](O)[C@H](O[C@H]3OC(CNN)=CC[C@H]3N)[C@@H](N)C[C@H]2N)OC[C@]1(C)O
inactive: all assays above

CN[C@@H]1[C@@H](O)[C@@H](O[C@@H]2[C@@H](O)[C@H](O[C@H]3O[C@H](C(C)N)[C@@H](O)[C@H](O)[C@H]3N)[C@@H](N)C[C@H]2N)OC[C@]1(C)O (some centres not stated)
inactive: Trichomonas vaginalis | Histomonas meleagridis | Entamoeba histolytica

CN[C@@H]1[C@@H](O)[C@@H](O[C@@H]2[C@@H](O)[C@H](O[C@H]3OC(/C=N/N4CCOCC4)=CC[C@H]3N)[C@@H](N)C[C@H]2N)OC[C@]1(C)O
inactive: all assays above

CN[C@@H]1[C@@H](O)[C@@H](O[C@@H]2[C@@H](O)[C@H](O[C@H]3OC(C(C)N)CC[C@H]3N)[C@@H](N)C[C@H]2N)OC[C@]1(C)O (single isomer, unassigned)
inactive: Trichomonas vaginalis | Histomonas meleagridis | Entamoeba histolytica

CN[C@@H]1[C@@H](O)[C@@H](O[C@@H]2[C@@H](O)[C@H](O[C@H]3OC(/C=N\N)=CC[C@H]3N)[C@@H](N)C[C@H]2N)OC[C@]1(C)O
inactive: all assays above

CN[C@@H]1[C@@H](O)[C@@H](O[C@@H]2[C@@H](O)[C@H](O[C@H]3OC(CNOC)=CC[C@H]3N)[C@@H](N)C[C@H]2N)OC[C@]1(C)O
inactive: all assays above

CN[C@@H]1[C@@H](O)[C@@H](O[C@@H]2[C@@H](O)[C@H](O[C@H]3O[C@H](CN)[C@@H](O)[C@H](O)[C@H]3N)[C@@H](N)C[C@H]2N)OC[C@]1(C)O
inactive: Trichomonas vaginalis | Histomonas meleagridis | Entamoeba histolytica

CN[C@@H]1[C@@H](O)[C@@H](O[C@@H]2[C@@H](O)[C@H](O[C@H]3OC(CNN4CCOCC4)=CC[C@H]3N)[C@@H](N)C[C@H]2N)OC[C@]1(C)O
inactive: all assays above

CN[C@@H]1[C@@H](O)[C@@H](O[C@@H]2[C@@H](O)[C@H](O[C@H]3O[C@@H](CN)CC[C@H]3N)[C@@H](N)C[C@H]2N)OC[C@]1(C)O
inactive: Trichomonas vaginalis | Histomonas meleagridis | Entamoeba histolytica
